In BindingDB's records for doi:10.7270/Q2XS5SSN (Nmmlsc, 2010):

Target: T1, GTPase KRas [1-37] (Homo sapiens, UniProt G3V5T7)
T1 construct: 1-37
Assay: Ras wt fluorescent GTP loading blockade – biochemical, wildtype, multiplex bead flow cytometry, dose response (AID 1335)

T1 sequence (G3V5T7 whole entry): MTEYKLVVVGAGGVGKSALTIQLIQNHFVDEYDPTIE

Structure (SMILES) | EC50 [µM]
CCN1C(c2ccccc2)=C(c2ccccc2)S/C1=C/C=C1\SC(=S)N(C)C1=O [(5Z)-5-[(2E)-2-(3-ethyl-4,5-diphenyl-1,3-thiazol-2-ylidene)ethylidene]-3-methyl-2-sulfanylidene-1,3-thiazolidin-4-one] | 33.6
CCn1cc(C=C2C(=O)c3ccccc3C2=O)c2ccccc21 [2-[(1-ethyl-3-indolyl)methylidene]indene-1,3-dione] | 7.96
Cc1cc(NC(=O)CSc2nc(O)c(C#N)c(-c3ccccc3)n2)no1 [2-[(5-cyano-4-oxidanylidene-6-phenyl-1H-pyrimidin-2-yl)sulfanyl]-N-(5-methyl-1,2-oxazol-3-yl)ethanamide] | 8.92
Cc1cc(C(=O)O)sc1CNCc1ccccc1Cl [5-[[(2-chlorobenzyl)amino]methyl]-4-methyl-2-thenoic acid] | 0.0782
O=C(O)c1ccccc1OCc1ccccc1Br [2-(2-bromobenzyl)oxybenzoic acid] | 0.109
O=C(O)/C=C/c1cn(Cc2ccccc2)nc1-c1cccs1 [(E)-3-(1-benzyl-3-thiophen-2-ylpyrazol-4-yl)prop-2-enoic acid] | 4.03
Cc1cc(C(=O)Oc2ccccc2C(=O)O)c(C)o1 [2-(2,5-dimethyl-3-furoyl)oxybenzoic acid] | 3.66
CCS(=O)(=O)N1N=C(c2cccc(NS(C)(=O)=O)c2)CC1c1ccc(C)cc1 (stereo not given) [MLS000680398] | 2.61
CC1(C)Cc2c(sc(NC(=S)NC(=O)c3ccccc3)c2C(=O)O)CO1 [2-(benzoylcarbamothioylamino)-5,5-dimethyl-4,7-dihydrothieno[2,3-c]pyran-3-carboxylic acid] | 0.0993
Cc1ccc(-n2c(=O)cc(N3CCc4ccccc4C3)[nH]c2=O)cc1 | 43.7
